In patent publication US20230132386A9, “GRANZYME B DIRECTED IMAGING AND THERAPY” (CytoSite Biopharma Inc., priority 2019, published 2023):
Each block holds one compound with its values, some of them ahead of it.

What was measured:
[1] = target: T1, Granzyme B (human lymphocytes) (Homo sapiens, UniProt P10144); assay: human Granzyme B biochemical assay; conditions: Granzyme B (human lymphocytes) 5 nM, substrate Ac-IETD-AFC 200 μM, 30 mins incubation, 22° C.
T1 construct: Supplied Granzyme B (human lymphocytes) enzyme is reconstituted to 1 mg/ml (about 31.25 μM); purchased Enzo Lifesciences ALX-200-602-0010; host or cells: human lymphocytes
Source text: The compounds of Formula I described above can be tested using the human Granzyme B biochemical assay provided below.
• 1. Granzyme B (human lymphocytes) Enzyme: Enzo Lifesciences, Cat #ALX-200-602-0010 • 2. Substrate (Ac-IETD-AFC): Enzo Lifesciences, Cat #ALX-260-110-M010 • 3. Standard inhibitor (Compound 20-Isomer3): Synthesized internally in TCG • 4. Dimethyl sulfoxide (DMSO): Sigma-Aldrich, Cat #41639 • 5. HEPES: Gibco, Cat #15630-080 • 6. Calcium chloride: Sigma-Aldrich, Cat #C-5080 • 7. Distilled water: Gibco, Cat #15230-162 • 8. Bovine serum albumin (BSA): Sigma-Aldrich, Cat #A3059 • 9. Black, clear bottom PDL plate (384 wells): Greiner bio-one, Cat #781946 • 10. Polypropylene plate (384 wells): Corning, Cat #3657
• 1. DMSO is added to the respective compound vial to make 10 mM Compound stock solution, which is stored at −20° C. • 2. 10 mM Compound stock solution is thawed and 1 mM DMSO stock solution is prepared by adding 45 μl of DMSO to 5 μl of 10 mM compound stock solution. • 3. 1 mM DMSO stock solution is serially diluted (3.16 fold) by adding 10 μl of 1 mM DMSO stock to 21.6 μl of DMSO and mixed well. 10 μl of the resulting solution is then added to 21.6 μl of DMSO and mixed well. This process is continued to created 11 dilution points for the assay standard inhibitor and 8 dilution points for test compounds in 384 well polypropylene plate. • 4. 2 μl of each dilution are dispensed in assay ready plate. 5. Each well is then diluted 25 fold by adding 48 μl of assay buffer to 2 μl of compound in assay ready plate to make Compound working stock.
• 1. Supplied Granzyme B (human lymphocytes) enzyme is reconstituted to 1 mg/ml (about 31.25 μM) and 1 μl aliquots are kept in −80° C. • 2. 1 μl aliquot is diluted to 625 nM by adding 49 μl of assay buffer containing 0.1% BSA and gently mixed. • 3. 10 nM enzyme working stock is prepared by adding assay buffer containing 0.1% BSA.
• 1. Supplied substrate (Ac-IETD-AFC) is reconstituted by adding DMSO to make 10 mM stock, aliquoted and stored in −80° C. • 2. 4 mM substrate mid stock is prepared by adding DMSO. • 3. Substrate working stock i.e. 800 μM is prepared by adding assay buffer.
• 1. 10 μl of serially diluted Compound working stock (start dose 40 μM) is added from assay ready plate to assay plate according to the plate map. • 2. Positive control (40 μM of standard inhibitor) and negative control (4% DMSO buffer) are added to the respective wells. • 3. 20 μl of Enzyme working stock is added to assay plate and gently mixed. • 4. The plate is incubated at 22° C. for 30 mins and spun at 130 g for 1 minute. • 5. After incubation, 10 μl of Substrate working stock is added to respective wells and mixed (Assay plate is maintained in dark after substrate addition). • 6. The plate is incubated at 22° C. for 60 mins and spun at 130 g for 1 minute. • 7. Fluorescence read (RFU) (Ex: 400 nm/Em: 505 nm) is taken after 60 mins in EnVision Multimode plate reader.
• 1. The RFU read is analyzed to calculate percent inhibition by normalizing with positive and negative controls taken as 100% and 0% effect respectively in Microsoft excel. • 2. Graph is generated by putting the analyzed data in GraphPad prism 5.0 software to get IC50 value for each compound.

[2] = metabolic stability assay using liver microsomes; assay type: in vitro ADME; conditions: human liver microsomes 0.4 mg/ml, 1 μM, NRS, 37° C.
Experimental: In addition, compounds of Formula I described above are also tested in the metabolic stability assay using liver microsomes, as provided below.
Buffer pH7.4: Prepare 1 (M) KH2PO4 and 1 (M) K2HPO4. Titrate 1(M) K2HPO4 with 1 (M) KH2PO4 to obtain pH 7.40. Dilute this buffer 10 fold in Water (30 ml buffer+270 ml of water) to obtain 100 mM phosphate buffer. Adjust pH to 7.40±0.02 using 5(N) HCl or 5(N) NaOH.
NADPH Regeneration System (NRS): Prepare a solution containing 13 mM NADP, 33 mM Glucose-6-phosphate, 33 mM MgCl2 and 4 U/ml Glucose-6-phosphate dehydrogenase in buffer.
Liver Microsome (LM) suspension: Thaw LM vial on ice, then mix 1.0 ml LM (20 mg/ml) with 19 ml buffer [final LM Conc: 1 mg/ml]
LM+NRS suspension: Mix 5.0 ml NRS with 20 ml LM suspension [final LM Conc: 0.8 mg/ml]
System suitability standard: a synthesized compound having Mol wt 686.2 used as System suitability standard. Dissolve this compound in ice-cold acetonitrile to obtain concentration of 0.1 μg/ml and store at 4° C.
Sub stock (100 μM): 4 μl of 10 mM Compound Stock+398 μl Acetonitrile Working plate (2 μM): 10 μl of 100 μM Sub stock+490 μl buffer
Incubate all plastic materials including tips at 37° C. overnight.
Incubate LM suspension and NRS at 37° C. for 15 min before use.
Add 40 μl buffer to the wells of blank plate.
Add 40 μl compound (from working plate) to 0, 5, 10, 20, 30 and 60 min plates.
Initiate reaction by adding 40 μl of LM+NRS suspension in each plate.
Terminate reaction by adding 240 μl ice-cold acetonitrile containing system suitability standard at designated time points. For T=0 add 240 μl ice-cold acetonitrile containing system suitability standard before LM+NRS addition.
Centrifuge (3500 rpm, 20 min and 15° C.) the plates.
Mix 110 μl supernatant with 110 μl water and quantitate amount of Compound in the solution using LC-MS/MS.
% Remaining at t=x min=100×([LC-MS/MS peak area of analyte]t=x min)/([LC-MS/MS peak area of analyte]t=0min)
Human LM: Corning, Cat #25117
Certain compounds of this disclosure were tested in the microsomal stability assay provided above.

T1 sequence (P10144 21-247): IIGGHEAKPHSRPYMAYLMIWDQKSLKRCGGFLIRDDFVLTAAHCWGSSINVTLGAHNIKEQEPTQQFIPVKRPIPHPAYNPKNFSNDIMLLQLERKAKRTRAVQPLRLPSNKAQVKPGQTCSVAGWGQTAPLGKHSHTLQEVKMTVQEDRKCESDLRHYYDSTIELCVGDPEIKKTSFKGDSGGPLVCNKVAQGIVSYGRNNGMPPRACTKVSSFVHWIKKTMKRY

Compound: CC[C@H](C)[C@@H](C(=O)N[C@H]1CCc2cccc3c2N(C1=O)[C@H](C(=O)NCc1c[nH]nn1)C3)N(C)C(=O)Cc1csc2ccccc12 (single isomer, unassigned) [Compound C152]
IC50 [1]: 301 to 1000 nM

Compound: CC[C@H](C)[C@@H](C(=O)N[C@H]1CCc2cccc3c2N(C1=O)[C@H](C(=O)NCc1c[nH]nn1)C3)N(C)C(=O)COCCF (single isomer, unassigned) [Compound C155]
IC50 [1]: 301 to 1000 nM
Human Liver Microsomes % remaining @30 min [2]: 66.3%

Compound: CC[C@H](C)[C@@H](C(=O)N[C@H]1CCc2cccc3c2N(C1=O)[C@H](C(=O)NCc1c[nH]nn1)C3)N(CC)C(=O)COCCF (single isomer, unassigned) [Compound C176]
IC50 [1]: 301 to 1000 nM

Compound: CC[C@H](C)[C@@H](C(=O)N[C@H]1CCc2cccc3c2N(C1=O)[C@H](C(=O)NCc1c[nH]nn1)C3)N(C(=O)COCCF)C(C)C (single isomer, unassigned) [Compound C177]
IC50 [1]: 1000 to 5000 nM

Compound: CC[C@H](C)[C@@H](C(=O)N[C@H]1CCc2cccc3c2N(C1=O)[C@H](C(=O)NCc1c[nH]nn1)C3)N(CCOCCF)C(=O)Cc1nc2ccccc2o1 (single isomer, unassigned) [Compound C178]
IC50 [1]: 301 to 1000 nM
Human Liver Microsomes % remaining @30 min [2]: 0.8%

Compound: CC[C@H](C)[C@@H](C(=O)N[C@H]1CCc2cccc3c2N(C1=O)[C@H](C(=O)NCc1c[nH]nn1)C3)N(CCOCCCF)C(=O)Cc1nc2ccccc2o1 (single isomer, unassigned) [Compound C179]
IC50 [1]: 301 to 1000 nM

Compound: CC[C@H](C)[C@@H](C(=O)N[C@H]1CCc2cccc3c2N(C1=O)[C@H](C(=O)NCc1c[nH]nn1)C3)N(CCc1csc2ccccc12)C(C)=O (single isomer, unassigned) [Compound C184]
IC50 [1]: > 5000 nM

Compound: CC[C@H](C)[C@@H](C(=O)N[C@H]1CCc2cccc3c2N(C1=O)[C@H](C(=O)NCc1c[nH]nn1)C3)N(C)C(=O)CC(=O)O (single isomer, unassigned) [Compound C190]
IC50 [1]: 301 to 1000 nM

Compound: N-Methyl-N-((1S,2S)-2-methyl-1- {(1S,8S)-9-oxo-1-[(1H-[1,2,3]triazol- 4-y lmethyl)-carbamoyl]-1,2,8,9- tetrahydro-7H-6-oxa-9a-aza- benzo[cd]azu1en-8-ylcarbamoyl}- butyl)-malonamic acid [Compound C214]
IC50 [1]: 301 to 1000 nM
Human Liver Microsomes % remaining @30 min [2]: 100.0%

Next, values leading:

IC50 [1]: 301 to 1000 nM
Human Liver Microsomes % remaining @30 min [2]: 83.6%
Compound: CC[C@H](C)[C@@H](C(=O)N[C@H]1CCc2cccc3c2N(C1=O)[C@H](C(=O)NCc1c[nH]nn1)C3)N(C)C(=O)CC(N)=O (single isomer, unassigned) [Compound C191]

IC50 [1]: 301 to 1000 nM
Human Liver Microsomes % remaining @30 min [2]: 72.8%
Compound: CC[C@H](C)[C@@H](C(=O)N[C@H]1CCc2cccc3c2N(C1=O)[C@H](C(=O)NCc1c[nH]nn1)C3)N(C)C(=O)CC(=O)NC (single isomer, unassigned) [Compound C192]

IC50 [1]: 301 to 1000 nM
Compound: CC[C@H](C)[C@@H](C(=O)N[C@H]1CCc2cccc3c2N(C1=O)[C@H](C(=O)NCc1c[nH]nn1)C3)N(C)C(=O)CC(=O)N(C)C (single isomer, unassigned) [Compound C193]

IC50 [1]: 301 to 1000 nM
Compound: CC[C@H](C)[C@@H](C(=O)N[C@H]1CCc2cccc3c2N(C1=O)[C@H](C(=O)NCc1c[nH]nn1)C3)N(C)C(=O)CC(=O)OC (single isomer, unassigned) [Compound C194]

IC50 [1]: 301 to 1000 nM
Compound: CC[C@H](C)[C@@H](C(=O)N[C@H]1CCc2cccc3c2N(C1=O)[C@H](C(=O)NCc1c[nH]nn1)C3)N(C)C(=O)Cc1c[nH]cn1 (single isomer, unassigned) [Compound C197]

IC50 [1]: 301 to 1000 nM
Human Liver Microsomes % remaining @30 min [2]: 55.4%
Compound: CC[C@H](C)[C@@H](C(=O)N[C@H]1CCc2cccc3c2N(C1=O)[C@H](C(=O)NCc1c[nH]nn1)C3)N(C)C(=O)Cn1ccnc1 (single isomer, unassigned) [Compound C198]

IC50 [1]: 301 to 1000 nM
Compound: CC[C@H](C)[C@@H](C(=O)N[C@H]1CCc2cccc3c2N(C1=O)[C@H](C(=O)NCc1c[nH]nn1)C3)N(CCOCCF)C(C)=O (single isomer, unassigned) [Compound C203]

IC50 [1]: 301 to 1000 nM
Human Liver Microsomes % remaining @30 min [2]: 98.2%
Compound: CC[C@H](C)[C@@H](C(=O)N[C@H]1CCc2cccc3c2N(C1=O)[C@H](C(=O)NCc1c[nH]nn1)C3)N(CCC(=O)O)C(=O)COCCF (single isomer, unassigned) [Compound C230]
